Experimental data reported in PubChem BioAssay (NCI).
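Each compound was tested at five concentrations against cells in 96-well plates for 48 hours. Here, GI50 denotes the concentration required for 50% inhibition of growth. At the TGI there is no net growth.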

Experiments:
Test in all cases: NCI anticancer screen, dose series, 48 h
CCRF-CEM leukemia = test system: CCRF-CEM leukemia
UO-31 renal = test system: UO-31 renal
MDA-MB-435 = test system: MDA-MB-435
NCI/ADR-RES ovarian = test system: NCI/ADR-RES ovarian
SF-295 CNS = test system: SF-295 CNS
IGROV1 ovarian = test system: IGROV1 ovarian
NCI-H23 lung = test system: NCI-H23 lung
RXF 393 renal = test system: RXF 393 renal
U251 CNS = test system: U251 CNS
COLO 205 colon = test system: COLO 205 colon

SMILES	TGI (CCRF-CEM leukemia) [µM]	GI50 (UO-31 renal) [nM]	TGI (UO-31 renal) [µM]	GI50 (MDA-MB-435) [µM]	TGI (MDA-MB-435) [µM]	GI50 (NCI/ADR-RES ovarian) [µM]	GI50 (SF-295 CNS) [µM]	TGI (SF-295 CNS) [µM]	GI50 (IGROV1 ovarian) [µM]	TGI (NCI-H23 lung) [µM]	TGI (RXF 393 renal) [µM]	TGI (U251 CNS) [µM]	TGI (NCI/ADR-RES ovarian) [µM]	TGI (COLO 205 colon) [µM]	TGI (IGROV1 ovarian) [µM]	GI50 (NCI-H23 lung) [µM]	GI50 (RXF 393 renal) [µM]	GI50 (U251 CNS) [µM]	GI50 (CCRF-CEM leukemia) [µM]
COc1cc2c(cc1O)CCN[C@@]21CS[C@H]2c3c(OC(C)=O)c(C)c4c(c3C(COC1=O)N1C2C2c3c(cc(C)c(OC)c3O)CC([C@@H]1O)N2C)OCO4 (stereo partly drawn)	< 1e-06	< 0.001	< 1e-06	0.00219	0.00604	0.0112	0.000788	0.0277	0.000783	–	–	–	–	–	–	–	–	–	–
N=C(N)SC1c2ccccc2-c2cc([N+](=O)[O-])ccc21 (stereo not drawn)	20.3	–	20.3	–	4.26	–	–	15.7	–	18.3	10.3	8.95	16	9.77	18	–	–	–	–
C/C=C1/CN2CC[C@@H]3c4ccccc4N4[C@H](C(=O)OC)[C@H]1C[C@H]2[C@]34/C=C/C1=COC[C@@H]2[C@H]1C[C@H]1c3c(c4ccccc4n3C)C[C@@H]2N1C	9.49	–	7.98	–	7.18	–	–	8.18	–	8.43	7.9	7.65	6.69	6.62	8.81	–	–	–	–
O=S(=O)(O)c1cc(O)c2c(O)c(N=Nc3ccc(/C=C/c4ccc(N=Nc5c(S(=O)(=O)O)cc6cc(S(=O)(=O)O)cc(O)c6c5O)cc4S(=O)(=O)O)c(S(=O)(=O)O)c3)c(S(=O)(=O)O)cc2c1	> 100	–	> 100	–	–	–	–	> 100	–	> 100	> 100	> 100	–	> 100	> 100	–	–	–	–
CC(=O)O[C@H]1CC[C@]2(C)[C@H]3C(=O)C=C4[C@@H]5C[C@](C)(C(=O)N6CCCNCC6)CC[C@]5(C)CC[C@@]4(C)[C@]3(C)CC[C@H]2C1(C)C	–	1400	2.82	1.59	2.97	–	1.76	3.2	–	3.37	3.24	3.37	–	–	–	1.73	1.66	1.6	–
Nc1nc(SCCC/C=C/B(O)O)nc2c1ncn2C1OC(CO)C(O)C1O (stereo not drawn)	> 243	–	–	–	–	–	–	> 243	–	> 243	> 243	> 243	–	> 243	> 243	–	–	–	–
O=C(N/N=C/c1cc(Br)cc(Br)c1[O-])c1ccccc1O.O=C(N/N=C/c1cc(Br)cc(Br)c1[O-])c1ccccc1O.[Cl-].[Fe+3]	> 100	–	20.7	–	–	–	–	5.98	–	–	6.39	4.91	–	–	30.6	–	–	–	38.6
CC1(C)[C@@H]2C[C@H]1C(Cc1ccccc1C[C@H]1c3cc(-c4ccccn4)ncc3[C@H]3C[C@@H]1C3(C)C)c1cc(-c3ccccn3)ncc12 (stereo partly drawn)	0.899	–	2.41	–	> 42.2	–	–	> 55.1	–	> 100	> 25.1	> 28.8	> 36.7	> 100	26.2	–	–	–	–
C=C(/C=C/C=C(/CCC=C(C)C)COC(C)=O)[C@@H]1CC[C@]2([C@H](CCCO)/C(=C(/C)C=O)CC[C@]2(C)O)[C@@H]1O	4.97	–	25.6	–	–	–	–	19.6	–	35.5	33.1	30.7	–	7.06	36.2	–	–	–	–
CN(C)CCNc1ccc2nnn3c4ccc(Cl)cc4c(=O)c1c23	> 52.8	–	9.41	–	18.8	–	–	15.7	–	18.7	13.1	6.72	15.9	10.5	38.7	–	–	–	–
CCCNCC(O)/C=C/[Si](C)(C)C (stereo not drawn) (tested in a mixture with another compound)	> 100	–	> 100	–	–	–	–	> 100	–	> 100	> 100	> 100	–	> 100	> 100	–	–	–	–
NC(Cc1ccc2oc3cc(=O)c4ccccc4c-3nc2c1)C(=O)O (stereo not drawn)	71.1	–	> 100	–	12.2	–	–	55.5	–	16.3	99.8	> 87.1	> 100	21.5	> 100	–	–	–	–
COc1cc2c(cc1OC)C(C1(O)CCCCC1)NCC2 (stereo not drawn)	> 100	–	> 100	–	–	–	–	> 100	–	> 100	> 100	> 100	–	> 100	> 100	–	–	–	–
Cc1c(Cl)c(S(N)(=O)=O)cc(S(N)(=O)=O)c1NC(=O)c1ccc(Cl)cc1	> 100	–	> 100	–	> 100	–	–	> 100	–	> 100	> 100	> 100	> 100	> 100	> 100	–	–	–	–
O=[N+]([O-])/C=C/c1cccc(F)c1	5.5	–	5.87	–	13.2	–	–	30.2	–	17.9	4.32	16.4	35.2	8.02	> 100	–	–	–	–
C#CCCCCC#CC1CCCC1C1=CC(=O)c2ccccc21 (stereo not drawn)	–	–	21.3	–	–	–	–	16.8	–	24.5	18.4	16.9	–	28.6	19.4	–	–	–	–
Oc1ccc2ccccc2c1N=Nc1ccc(N=Nc2ccccc2)cc1	> 100	–	> 100	–	> 100	–	–	> 100	–	> 100	> 100	> 100	> 100	> 100	> 100	–	–	–	–
CCCCCCc1ccc(O)cc1O	> 100	–	86.7	–	–	–	–	> 100	–	> 100	> 100	> 100	> 100	> 100	> 93.8	–	–	–	–
Nc1nc(Cl)cc(NCCCCO)n1	> 100	–	> 100	–	–	–	–	> 100	–	> 100	> 100	> 100	–	> 100	> 100	–	–	–	–
CCOC(=O)C1=C(C)N2CCCOC2(C)C(C(=O)OC)C1c1cccc([N+](=O)[O-])c1 (stereo not drawn)	> 100	–	> 100	–	–	–	–	> 100	–	> 100	> 100	–	–	> 100	> 100	–	–	–	–
CN[C@@H]1[C@H](O)[C@H](NC)[C@H]2O[C@@]3(O)C(=O)C[C@@H](C)O[C@H]3O[C@@H]2[C@H]1O	> 100	–	> 100	–	> 100	–	–	> 100	–	> 100	> 100	> 100	> 100	> 100	> 100	–	–	–	–
Cc1ccccc1N=Nc1ccc(N=Nc2c(O)ccc3cc(S(=O)(=O)O)cc(S(=O)(=O)O)c23)c(C)c1	> 100	–	> 100	–	> 100	–	–	> 100	–	> 100	> 100	> 100	> 100	> 100	> 100	–	–	–	–
